Source: patent US20260262643A1, “HERBICIDAL BENZOXAZINES” (FMC CORPORATION, priority 2022, published 2026)
Like-named read-outs stand apart in the source and are kept apart here.

Columns and labels:
ducksalad = assay: Test B flooded paddy test; type: in vivo, Heteranthera limosa; conditions: Heteranthera limosa, 312 h, 250 g ai/ha, Flood, 13 days, 0 to 100 scale (0 no effect, 100 complete control); read-out: Plant response rating, Ducksalad
Summary of the method: (§1)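 Flooded to 3 cm at treatment time, 2-leaf plants got the test compound applied straight into the paddy water. They then stayed under constant flood in a greenhouse for 13 days. Ratings used a 0 to 100 visual scale.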

barnyardgrass = assay: Test A preemergence; type: in vivo, Echinochloa crusgalli; conditions: visual injury after 10 days, 0 to 100 scale, 0 is no effect, 100 is complete control
Summary of the method: (§2)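 Greenhouse pot test, 10 days. Compound (non-phytotoxic solvent, surfactant) sprayed on soil at seeding or on seedlings at one- to two-leaf stage. Visual injury rated 0–100 against untreated plants.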

soybean = assay: Test A preemergence; type: in vivo, Glycine max; conditions: Glycine max, pre-emergence, 240 h, read-out: Plant response rating, Soybean; for plant injury at 125 g/ha: 125 g ai/ha; for plant injury at 500 g/ha: 500 g ai/ha
Summary of the method: as §2

corn = assay: Test A preemergence; type: in vivo, Zea mays; conditions: Zea mays, pre-emergence, 240 h; for Corn plant response rating (crop injury, 0 = no effect, 100 = complete kill) at 125 g/ha: 125 g ai/ha; for Corn plant response rating (crop injury, 0 = no effect, 100 = complete kill) at 500 g/ha: 500 g ai/ha
Summary of the method: as §2

kochia [1] = assay: Test A preemergence; type: in vivo, Bassia scoparia; conditions: Bassia scoparia, pre-emergence, 240 h, read-out: Plant response rating, Kochia; for pest or weed control at 125 g/ha: 125 g ai/ha; for pest or weed control at 500 g/ha: 500 g ai/ha
Summary of the method: as §2

wheat [2] = assay: Test A postemergence; type: in vivo, Triticum aestivum; conditions: Triticum aestivum, post-emergence, 240 h, postemergence, 10 days, 0 to 100 scale (0 no effect, 100 complete control); for plant injury at 125 g/ha: 125 g ai/ha, read-out: Wheat plant response rating; for plant injury at 500 g/ha: 500 g ai/ha, visual injury, read-out: Plant response rating, Wheat
Summary of the method: as §2

ragweed [3] = assay: Test A preemergence; type: in vivo, Ambrosia artemisiifolia; conditions: Ambrosia artemisiifolia, pre-emergence, 240 h, read-out: Plant response rating, Ragweed; for pest or weed control at 125 g/ha: 125 g ai/ha; for pest or weed control at 500 g/ha: 500 g ai/ha
Summary of the method: as §2

wheat [4] = assay: Test A preemergence; type: in vivo, Triticum aestivum; conditions: Triticum aestivum, pre-emergence, 240 h, read-out: Plant response rating, Wheat; for plant injury at 125 g/ha: 125 g ai/ha; for plant injury at 500 g/ha: 500 g ai/ha
Summary of the method: as §2

kochia [5] = assay: Test A postemergence; type: in vivo, Bassia scoparia; conditions: Bassia scoparia, post-emergence, 240 h, postemergence, 10 days, 0 to 100 scale (0 no effect, 100 complete control); for pest or weed control at 125 g/ha: 125 g ai/ha, read-out: Kochia plant response rating; for pest or weed control at 500 g/ha: 500 g ai/ha, visual injury, read-out: Plant response rating, Kochia
Summary of the method: as §2

foxtail, giant = assay: Test A postemergence; type: in vivo, Setaria faberi; conditions: Setaria faberi, post-emergence, 240 h, postemergence, 10 days, 0 to 100 scale (0 no effect, 100 complete control); for pest or weed control at 125 g/ha: 125 g ai/ha, read-out: Foxtail, Giant plant response rating; for pest or weed control at 500 g/ha: 500 g ai/ha, visual injury, read-out: Plant response rating, Foxtail, Giant
Summary of the method: as §2

rice = assay: Test B flooded paddy test; type: in vivo, Oryza sativa; conditions: Oryza sativa, 312 h; 250 g ai/ha, Flood, 13 days, 0 to 100 scale (0 no effect, 100 complete control); read-out: Plant response rating, Rice
Summary of the method: as §1

blackgrass [6] = assay: Test A preemergence; type: in vivo, Alopecurus myosuroides; conditions: Alopecurus myosuroides, pre-emergence, 240 h, read-out: Plant response rating, Blackgrass; for pest or weed control at 125 g/ha: 125 g ai/ha; for pest or weed control at 500 g/ha: 500 g ai/ha
Summary of the method: as §2

ragweed [7] = assay: Test A postemergence; type: in vivo, Ambrosia artemisiifolia; conditions: Ambrosia artemisiifolia, post-emergence, 240 h, postemergence, 10 days, 0 to 100 scale (0 no effect, 100 complete control); for pest or weed control at 125 g/ha: 125 g ai/ha, read-out: Ragweed plant response rating; for pest or weed control at 500 g/ha: 500 g ai/ha, visual injury, read-out: Plant response rating, Ragweed
Summary of the method: as §2

blackgrass [8] = assay: Test A postemergence; type: in vivo, Alopecurus myosuroides; conditions: Alopecurus myosuroides, post-emergence, 240 h, postemergence, 10 days, 0 to 100 scale (0 no effect, 100 complete control); for pest or weed control at 125 g/ha: 125 g ai/ha, read-out: Blackgrass plant response rating; for pest or weed control at 500 g/ha: 500 g ai/ha, visual injury, read-out: Plant response rating, Blackgrass
Summary of the method: as §2

[9] = visual injury after 10 days, 0 to 100 scale, 0 is no effect, 100 is complete control
[10] = 0 to 100 scale (0 no effect, 100 complete control), 10 days

SMILES	pest or weed control at 250 g/ha (ducksalad) [%]	Plant response rating, Barnyardgrass (barnyardgrass; 125 g ai/ha)	plant injury at 125 g/ha (wheat [2]) [%]	plant injury at 500 g/ha (wheat [2]) [%]	pest or weed control at 125 g/ha (kochia [5]) [%]	pest or weed control at 500 g/ha (kochia [5]) [%]	pest or weed control at 125 g/ha (foxtail, giant) [%]	pest or weed control at 500 g/ha (foxtail, giant) [%]	plant injury at 250 g/ha (rice) [%]	pest or weed control at 125 g/ha (ragweed [7]) [%]	pest or weed control at 500 g/ha (ragweed [7]) [%]	pest or weed control at 125 g/ha (blackgrass [8]) [%]	pest or weed control at 500 g/ha (blackgrass [8]) [%]	also measured
C[C@H]1CN(C(=S)c2cccc(-n3cncn3)c2)c2cccc(Cl)c2O1 [Compound 139, [(2S)-8-Chloro-2,3-dihydro-2-methyl-4H-1,4-benzoxazin-4-yl][3-(1H-1,2,4-triazol-1-yl)phenyl]methanethione]	75	70	20	50	50	80	80	100	0	0	30	80	90	Plant response rating, Barnyardgrass (barnyardgrass; 500 g ai/ha): 90; plant injury at 125 g/ha (soybean; 0 to 100 scale): 0%; plant injury at 500 g/ha (soybean; [9]): 40%; Corn plant response rating (crop injury, 0 = no effect, 100 = complete kill) at 125 g/ha (corn; 0 to 100 scale): 0%; Corn plant response rating (crop injury, 0 = no effect, 100 = complete kill) at 500 g/ha (corn; [9]): 40%; pest or weed control at 125 g/ha (kochia [1]; 0 to 100 scale): 0%; pest or weed control at 500 g/ha (kochia [1]; [9]): 0%; pest or weed control at 125 g/ha (ragweed [3]; 0 to 100 scale): 0%; pest or weed control at 500 g/ha (ragweed [3]; [9]): 0%; plant injury at 125 g/ha (wheat [4]; 0 to 100 scale): 20%; plant injury at 500 g/ha (wheat [4]; [9]): 20%; pest or weed control at 125 g/ha (blackgrass [6]; 0 to 100 scale): 70%; pest or weed control at 500 g/ha (blackgrass [6]; [9]): 90%
Cc1cccc2c1O[C@@H](C)CN2C(=O)c1cccc(-n2cnc(C3COC3)n2)c1 [Compound 109, [(2S)-2,3-Dihydro-2,8-dimethyl-4H-1,4-benzoxazin-4-yl][3-[3-(3-oxetanyl)-1H-1,2,4-triazol-1-yl]phenyl]methanone]	75	90	40	90	70	90	70	90	0	0	50	70	90	plant injury at 125 g/ha (soybean; [9]): 30%; plant injury at 500 g/ha (soybean; [10]): 80%; Corn plant response rating (crop injury, 0 = no effect, 100 = complete kill) at 125 g/ha (corn; [9]): 40%; Corn plant response rating (crop injury, 0 = no effect, 100 = complete kill) at 500 g/ha (corn; [10]): 70%; pest or weed control at 125 g/ha (kochia [1]; [9]): 60%; pest or weed control at 500 g/ha (kochia [1]; [10]): 90%; pest or weed control at 125 g/ha (ragweed [3]; [9]): 40%; pest or weed control at 500 g/ha (ragweed [3]; [10]): 80%; plant injury at 125 g/ha (wheat [4]; [9]): 40%; plant injury at 500 g/ha (wheat [4]; [10]): 90%; pest or weed control at 125 g/ha (blackgrass [6]; [9]): 80%; pest or weed control at 500 g/ha (blackgrass [6]; [10]): 90%
